Measured values: patent US20250221410A1, “SUBSTITUTED 2-C-AZINES AND SALTS THEREOF, AND USE THEREOF AS HERBICIDAL ACTIVE SUBSTANCES” (BAYER AKTIENGESELLSCHAFT, priority 2022, published 2025)

Experiments:
Assay type in all cases: in vivo
[1] = test system: DIGSA: Digitaria sanguinalis; experiment: Pre-emergence herbicide efficacy at 1280 g/ha, DIGSA; conditions: visual scoring after about 3 weeks vs untreated controls
How it was run: (§1)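 Pre-emergence pot test in sandy loam: WP or EC formulations sprayed onto covering soil after sowing, as aqueous suspension/emulsion with 0.5% additive at 600 L/ha water. Plants grown in greenhouse; after about 3 weeks, efficacy scored visually as % versus untreated controls (100% = dead, 0% = like control).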

[2] = test system: ABUTH: Abutilon theophrasti; experiment: Post-emergence herbicidal efficacy at 1280 g/ha, ABUTH; conditions: rated visually after about 3 weeks vs untreated controls, 100% = plants have died, 0% = like control plants
How it was run: (§2)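 Read-out is visual percent activity relative to untreated controls (100% = plants died, 0% = no effect), scored about 3 weeks after treatment. Application was post-emergence at the one-leaf stage in the greenhouse, as WP or EC in water with 0.5% additive at 600 L/ha.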

[3] = test system: AMARE: Amaranthus retroflexus; experiment: Pre-emergence herbicide efficacy at 1280 g/ha, AMARE; conditions: visual scoring after about 3 weeks vs untreated controls
How it was run: as §1

[4] = test system: ECHCG: Echinochloa crus-galli; experiment: Post-emergence herbicidal efficacy at 1280 g/ha, ECHCG; conditions: rated visually after about 3 weeks vs untreated controls, 100% = plants have died, 0% = like control plants
How it was run: as §2

[5] = test system: VERPE: Veronica persica; experiment: Pre-emergence herbicide efficacy at 1280 g/ha, VERPE; conditions: visual scoring vs untreated controls
How it was run: as §1

[6] = test system: KCHSC: Kochia scoparia; experiment: Post-emergence herbicidal efficacy at 1280 g/ha, KCHSC; conditions: visual rating about 3 weeks after treatment vs untreated controls
How it was run: as §2

[7] = test system: STEME: Stellaria media; experiment: Post-emergence herbicidal efficacy at 1280 g/ha, STEME; conditions: visual rating about 3 weeks after treatment vs untreated controls
How it was run: as §2

[8] = test system: SETVI: Setaria viridis; experiment: Pre-emergence herbicide efficacy at 1280 g/ha, SETVI; conditions: visual scoring vs untreated controls
How it was run: as §1

[9] = test system: ALOMY: Alopecurus myosuroides; experiment: Post-emergence herbicidal efficacy at 1280 g/ha, ALOMY; conditions: rated visually after about 3 weeks vs untreated controls, 100% = plants have died, 0% = like control plants
Procedure: (§3) Seeds of mono- and dicotyledonous weed plants were placed in plastic pots in sandy loam soil (doubly sown with in each case one species of mono- or dicotyledonous weed plants per pot), covered with soil and cultivated in a greenhouse under controlled growth conditions. 2 to 3 weeks after sowing, the test plants were treated at the one-leaf stage. The compounds of the invention, formulated in the form of wettable powders (WP) or as emulsion concentrates (EC), were applied to the green parts of the plants as aqueous suspension or emulsion with addition of 0.5% additive at a water application rate equivalent to 600 litres per hectare. After the test plants had been kept in the greenhouse under optimum growth conditions for about 3 weeks, the activity of the preparations was rated visually in comparison to untreated controls. For example, 100% activity=the plants have died, 0% activity=like control plants. Tables A1 to A12 below show the effects of selected compounds of the general formula (I) according to Table 1 on various harmful plants and at an application rate corresponding to 1280 g/ha, which were obtained by the trial procedure specified above.

[10] = test system: VERPE: Veronica persica; experiment: Post-emergence herbicidal efficacy at 1280 g/ha, VERPE; conditions: visual rating about 3 weeks after treatment vs untreated controls
How it was run: as §2

[11] = test system: LOLRI: Lolium rigidum; experiment: Pre-emergence herbicide efficacy at 1280 g/ha, LOLRI; conditions: visual scoring after about 3 weeks vs untreated controls
How it was run: as §1

[12] = test system: POAAN: Poa annua; experiment: Post-emergence herbicidal efficacy at 1280 g/ha, POAAN; conditions: visual rating about 3 weeks after treatment vs untreated controls
How it was run: as §2

[13] = test system: ABUTH: Abutilon theophrasti; experiment: Pre-emergence herbicide efficacy at 1280 g/ha, ABUTH; conditions: visual scoring after about 3 weeks vs untreated controls
How it was run: as §1

[14] = test system: ALOMY: Alopecurus myosuroides; experiment: Pre-emergence herbicide efficacy at 1280 g/ha, ALOMY; conditions: visual scoring after about 3 weeks vs untreated controls
How it was run: as §1

[15] = test system: VERPE: Veronica persica; experiment: Post-emergence herbicidal efficacy at 80 g/ha, VERPE; conditions: visual rating about 3 weeks after treatment vs untreated controls
How it was run: (§4)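 Post-emergence spray, one-leaf stage (2–3 wk after sowing), sandy loam, greenhouse; WP/EC in water + 0.5% additive, 600 l/ha. Visual % activity vs untreated controls at ~3 wk; 100% = plants dead, 0% = like control.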

[16] = test system: DIGSA: Digitaria sanguinalis; experiment: Post-emergence herbicidal efficacy at 1280 g/ha, DIGSA; conditions: rated visually after about 3 weeks vs untreated controls, 100% = plants have died, 0% = like control plants
How it was run: as §2

[17] = test system: POAAN: Poa annua; experiment: Pre-emergence herbicide efficacy at 1280 g/ha, POAAN; conditions: visual scoring after about 3 weeks vs untreated controls
How it was run: as §1

[18] = test system: SETVI: Setaria viridis; experiment: Post-emergence herbicidal efficacy at 1280 g/ha, SETVI; conditions: visual rating about 3 weeks after treatment vs untreated controls
How it was run: as §2

[19] = test system: VIOTR: Viola tricolor; experiment: Post-emergence herbicidal efficacy at 80 g/ha, VIOTR; conditions: visual rating about 3 weeks after treatment vs untreated controls
Procedure: (§5) Seeds of monocotyledonous and dicotyledonous weeds and crop plants were placed in sandy loam in plastic or organic planting pots, covered with soil and cultivated in a greenhouse under controlled growth conditions. 2 to 3 weeks after sowing, the test plants were treated at the one-leaf stage. The compounds of the invention, formulated in the form of wettable powders (WP) or as emulsion concentrates (EC), were then sprayed onto the green parts of the plants as aqueous suspension or emulsion with addition of 0.5% additive at a water application rate of 600 l/ha (converted). After the test plants had been kept in the greenhouse under optimum growth conditions for about 3 weeks, the activity of the preparations was rated visually in comparison to untreated controls. For example, 100% activity=the plants have died, 0% activity=like control plants. Tables B1 to B10 below show the effects of selected compounds of the general formula (I) according to Table 1 on various harmful plants and an application rate corresponding to 80 g/ha, which were obtained by the experimental procedure mentioned above.

[20] = test system: AMARE: Amaranthus retroflexus; experiment: Post-emergence herbicidal efficacy at 1280 g/ha, AMARE; conditions: rated visually after about 3 weeks vs untreated controls, 100% = plants have died, 0% = like control plants
How it was run: as §2

[21] = test system: STEME: Stellaria media; experiment: Pre-emergence herbicide efficacy at 1280 g/ha, STEME; conditions: visual scoring vs untreated controls
How it was run: as §1

[22] = test system: LOLRI: Lolium rigidum; experiment: Post-emergence herbicidal efficacy at 1280 g/ha, LOLRI; conditions: visual rating about 3 weeks after treatment vs untreated controls
Procedure: as §3

[23] = test system: MATIN: Matricaria inodora; experiment: Pre-emergence herbicide efficacy at 1280 g/ha, MATIN; conditions: visual scoring after about 3 weeks vs untreated controls
How it was run: as §1

[24] = test system: KCHSC: Kochia scoparia; experiment: Post-emergence herbicidal efficacy at 80 g/ha, KCHSC; conditions: visual rating about 3 weeks after treatment vs untreated controls
Procedure: as §5

[25] = test system: AMARE: Amaranthus retroflexus; experiment: Post-emergence herbicidal efficacy at 80 g/ha, AMARE; conditions: visual rating about 3 weeks after treatment vs untreated controls
How it was run: as §4

[26] = test system: KCHSC: Kochia scoparia; experiment: Pre-emergence herbicide efficacy at 1280 g/ha, KCHSC; conditions: visual scoring after about 3 weeks vs untreated controls
How it was run: as §1

[27] = test system: VIOTR: Viola tricolor; experiment: Pre-emergence herbicide efficacy at 80 g/ha, VIOTR; conditions: scored visually after about 3 weeks
From the text: Seeds of monocotyledonous and dicotyledonous weed plants and crop plants were placed in plastic or organic planting pots and covered with soil. The compounds of the invention, formulated in the form of wettable powders (WP) or as emulsion concentrates (EC), were then applied to the surface of the covering soil as aqueous suspension or emulsion with addition of 0.5% additive at a water application rate equivalent to 600 l/ha. After the treatment, the pots were placed in a greenhouse and kept under good growth conditions for the test plants. After about 3 weeks, the efficacy of the preparations was scored visually in comparison with untreated controls as percentages. For example, 100% activity=the plants have died, 0% activity=like control plants. Tables D1 to D12 below show the effects of selected compounds of the general formula (I) according to Table 1 on various harmful plants and an application rate corresponding to 80 g/ha, which were obtained by the experimental procedure mentioned above.

[28] = test system: ECHCG: Echinochloa crus-galli; experiment: Pre-emergence herbicide efficacy at 1280 g/ha, ECHCG; conditions: visual scoring after about 3 weeks vs untreated controls
How it was run: as §1

With `Fc1ccc(Oc2c(Cc3ncc(Cl)cn3)cccc2C(F)(F)F)cc1` [Example 1-40] the “Pre-emergence efficacy against DIGSA” value [1] was 100%, the “Post-emergence efficacy at 1280 g/ha against ABUTH in %” value [2] was 100% and the “Pre-emergence efficacy against AMARE” value [3] was 100%. The “Post-emergence efficacy at 1280 g/ha against ECHCG in %” value [4] was 100%, the “Pre-emergence efficacy against VERPE in %” value [5] was 100% and the “Post-emergence efficacy against KCHSC” value [6] was 100%. For the same compound, the “Post-emergence efficacy against STEME” value [7] was 100%, the “Pre-emergence efficacy against SETVI in %” value [8] was 100% and the “Post-emergence efficacy at 1280 g/ha against ALOMY in %” value [9] was 100%. The “Post-emergence efficacy against VERPE” value [10] was 100%, the “Pre-emergence efficacy against LOLRI” value [11] was 100% and the “Post-emergence efficacy against POAAN” value [12] was 90%. For the same compound, the “Pre-emergence efficacy against ABUTH” value [13] was 100%, the “Pre-emergence efficacy against ALOMY” value [14] was 100% and the “Post-emergence efficacy against VERPE” value [15] was 90%. For the same compound, the “Post-emergence efficacy at 1280 g/ha against DIGSA in %” value [16] was 90%, the “Pre-emergence efficacy against POAAN” value [17] was 100% and the “Post-emergence efficacy against SETVI” value [18] was 90%. The “Post-emergence efficacy against VIOTR” value [19] was 100%, the “Post-emergence efficacy at 1280 g/ha against AMARE in %” value [20] was 100% and the “Pre-emergence efficacy against STEME in %” value [21] was 100%. The “Post-emergence efficacy against LOLRI” value [22] was 100%, the “Pre-emergence efficacy against MATIN” value [23] was 90% and the “Post-emergence efficacy against KCHSC” value [24] was 90%. The “Post-emergence efficacy against AMARE” value [25] was 90%, the “Pre-emergence efficacy against KCHSC” value [26] was 90% and the “Pre-emergence efficacy against VIOTR in %” value [27] was 100%. The “Pre-emergence efficacy against ECHCG” value [28] was 100%.
